# Assay results taken from PMC9760604, “Strand 1A variant in neuroserpin shows increased aggregation and no loss of inhibition: implication in ameliorating polymerization to retain activity” (Bioscience Reports, 2022).
# Changes are numbered by the printed parent chain.
# Experiments:
# [1] = target: T1, WT NS (neuroserpin) (Homo sapiens, UniProt Q99574, H138C/W154C); test: Bis-ANS fluorescence, excitation […] nm; assay type: binding; conditions: 2 uM protein, Bis-ANS 1:5 ratio (10 uM), 25 °C, surface hydrophobicity probe
# T1 construct: gene SERPINI1; N-terminal 6-His tag, pET28b, expressed in E. coli BL21(DE3), monomeric
# T1 sequence (Q99574 17-410 H138C/W154C): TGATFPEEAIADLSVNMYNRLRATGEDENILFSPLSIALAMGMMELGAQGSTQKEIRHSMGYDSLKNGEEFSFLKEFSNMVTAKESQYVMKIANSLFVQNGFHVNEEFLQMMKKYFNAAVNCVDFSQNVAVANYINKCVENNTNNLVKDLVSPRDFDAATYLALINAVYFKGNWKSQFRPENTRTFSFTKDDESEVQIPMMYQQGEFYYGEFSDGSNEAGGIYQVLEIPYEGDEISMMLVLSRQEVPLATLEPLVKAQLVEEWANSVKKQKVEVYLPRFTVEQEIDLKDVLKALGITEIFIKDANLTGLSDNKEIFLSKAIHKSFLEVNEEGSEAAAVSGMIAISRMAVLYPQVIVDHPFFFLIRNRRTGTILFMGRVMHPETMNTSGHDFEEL
# [2] = target: T2, WT NS (neuroserpin) (Homo sapiens, UniProt Q99574, H138C); test: Bis-ANS fluorescence, excitation […] nm; assay type: binding; conditions: 2 uM protein, Bis-ANS 1:5 ratio (10 uM), 25 °C, surface hydrophobicity probe
# T2 construct: gene SERPINI1; N-terminal 6-His tag, pET28b, expressed in E. coli BL21(DE3), monomeric
# T2 sequence (Q99574 17-410 H138C): T1 sequence (Q99574 17-410 H138C/W154C) with C138W
smiles,measurement,setting,value
"O=S(=O)(O)c1cccc2c(-c3ccc(Nc4ccccc4)c4c(S(=O)(=O)O)cccc34)ccc(Nc3ccccc3)c12 [Bis-ANS, 4,4-Bis-1-anilino naphthalene 8-sulfonate]","Bis-ANS fluorescence, excitation 390 nm",[1],"The double variant showed a decreased fluoroscence emission intensity, and a very high surface hydrophobicity"
same,"Bis-ANS fluorescence, excitation 390 nm",[2],More hydrophobic exposure was observed due to increase Bis-ANS fluorescence in the H138C variant
